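The compound was tested at five concentrations on cells cultured in 96-well plates, with a 48-hour exposure period. GI50: concentration for 50% inhibition of growth. TGI is the concentration that stops growth completely.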
What was measured:
Experiment in all cases: inhibition of tumour cell growth, NCI panel, 48 h
[1] = tested on: SR leukemia
[2] = tested on: MCF7 breast
[3] = tested on: NCI-H226 lung
[4] = tested on: MOLT-4 leukemia
[5] = tested on: HL-60(TB) leukemia
[6] = tested on: OVCAR-8 ovarian
[7] = tested on: HCC-2998 colon
[8] = tested on: NCI-H522 lung
[9] = tested on: M14 melanoma
[10] = tested on: SK-MEL-28 melanoma

Structure (SMILES)	TGI [1]	TGI [2]	TGI [3]	TGI [4]	TGI [5]	TGI [6]	TGI [7]	TGI [8]	TGI [9]	TGI [10]	GI50 [1]	GI50 [2]	GI50 [3]	GI50 [4]	GI50 [5]	GI50 [6]	GI50 [7]	GI50 [8]	GI50 [9]	GI50 [10]
COC12C(COC(N)=O)C3=C(C(=O)C(C)=C(N)C3=O)N1CC1C2N1C (stereo not given)	56.5 µM	22.3 µM	38.8 µM	18.6 µM	8.66 µM	53.1 µM	16.7 µM	25.4 µM	22.7 µM	57.4 µM	–	–	–	–	–	–	–	–	–	–
Cn1c(Nc2ccc(C(F)(F)F)cc2)nc2cc(Oc3ccnc(-c4ncc(C(F)(F)F)[nH]4)c3)ccc21	13.2 µM	14.4 µM	16.5 µM	8.76 µM	7.06 µM	14.1 µM	13.1 µM	11 µM	1.33 µM	4.79 µM	0.0457 µM	3.38 µM	0.492 µM	0.319 µM	0.365 µM	0.775 µM	1.25 µM	0.307 µM	0.0338 µM	0.126 µM
CCc1ccc(/C=C/c2ccc(O)c3ncccc23)[n+](C)c1	> 25.9 µM	> 90.7 µM	> 100 µM	> 100 µM	73.2 µM	> 100 µM	> 100 µM	> 100 µM	> 100 µM	> 100 µM	2.76 µM	7.99 µM	> 22.4 µM	3.72 µM	18.8 µM	0.668 µM	> 30.5 µM	2.3 µM	–	76.2 µM
CN(C)c1ncnc2c1ncn2CCn1cnc2c(N(C)C)ncnc21	> 100 µM	> 100 µM	–	–	> 100 µM	> 100 µM	> 100 µM	> 100 µM	> 100 µM	> 100 µM	–	–	–	–	–	–	–	–	–	–
CC(C(=O)O)c1cccc(Oc2ccccc2)c1 (stereo not given)	> 100 µM	> 100 µM	> 100 µM	> 100 µM	> 100 µM	> 100 µM	> 100 µM	> 100 µM	> 100 µM	> 100 µM	> 100 µM	> 100 µM	> 100 µM	> 100 µM	> 100 µM	> 100 µM	> 100 µM	> 100 µM	> 100 µM	> 100 µM
COc1ccc(-c2cc(/C=C/C(=O)c3ccc(OC)c(OC)c3)[nH]n2)cc1	3.74 µM	1.76 µM	–	8 µM	6.4 µM	10.4 µM	3.97 µM	1.39 µM	4.97 µM	3.07 µM	0.677 µM	0.417 µM	–	2.67 µM	2.18 µM	2.16 µM	2.02 µM	0.41 µM	2.17 µM	1.65 µM
COC(=O)c1ccc2c(c1)/C(=C\c1cc(Br)c(O)c(Br)c1)C(=O)N2	> 25 µM	> 25 µM	> 25 µM	> 24.1 µM	14.6 µM	> 25 µM	> 25 µM	19.3 µM	9.23 µM	> 25 µM	8.11 µM	8.01 µM	14.6 µM	7.59 µM	4.97 µM	13 µM	8.23 µM	4.73 µM	1.88 µM	3.96 µM
